The values below come from patent publication US8426420B2, “Heterocyclic pyrazole-carboxamidesas P2Y12 antagonists” (Sanofi, priority 2007, dated 2013).

The target in one assay is human P2Y12 receptor (Homo sapiens, UniProt Q9H244). Description: Human P2Y12 recombinant cell membrane binding assay with 33P 2MeS-ADP. As to conditions: competition against 33P 2MeS-ADP, membranes of CHO cells with recombinant human P2Y12 receptor. The procedure, abridged:
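CHO membranes expressing human P2Y12 (20 μg/ml stock) preincubated 15 min at RT with compound in HEPES pH 7.4 buffer, then 33P 2MeS-ADP (1.61 nM working solution) added for 20 min at RT. Bound label filtered and counted; four-point, five-fold series from 10 μM final, triplicate, four-parameter fit.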

Assay [1] has as its system human platelet rich plasma. Description: Inhibition of human platelet aggregation, 96-well assay. It is filed as cell-based. As to conditions: Homo sapiens, Platelet, 20 min. The procedure, abridged:
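ADP-induced aggregation read as 650 nm absorbance every minute for 20 min at 37 °C, with shaking between reads. PRP (~3×E8 platelets/ml, diluted with PPP, ACD-A blood from healthy volunteers) was exposed to compound for 5 min before adding a 40 μM ADP stock (15 μl into 150 μl).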

The term IC50 denotes the concentration at which inhibition is half-maximal.

Sequence of human P2Y12 receptor (Q9H244 whole entry): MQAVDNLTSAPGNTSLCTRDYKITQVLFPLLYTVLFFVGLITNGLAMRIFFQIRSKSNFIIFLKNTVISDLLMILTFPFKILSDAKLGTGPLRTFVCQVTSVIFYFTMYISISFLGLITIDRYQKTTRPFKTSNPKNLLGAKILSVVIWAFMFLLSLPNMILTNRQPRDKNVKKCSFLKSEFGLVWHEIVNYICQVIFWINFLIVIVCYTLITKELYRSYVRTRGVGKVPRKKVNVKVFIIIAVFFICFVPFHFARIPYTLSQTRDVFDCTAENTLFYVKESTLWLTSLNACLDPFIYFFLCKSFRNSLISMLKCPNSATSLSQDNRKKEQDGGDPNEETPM

As to `CCOC(=O)N1CCN(C(=O)[C@H](CCC(=O)OCC2CC2)NC(=O)c2cc(OCC(=O)N3CCC[C@H]3C(=O)NC3CCC3)n(-c3ccccc3)n2)CC1` [Example 128, 4-[(S)-2-({5-[2-((S)-2-Cyclobutylcarbamoyl-pyrrolidin-1-yl)-2-oxo-ethoxy]-1-phenyl-1H-pyrazole-3-carbonyl}-amino)-4-cyclopropylmethoxycarbonyl-butyryl]-piperazine-1-carboxylic acid ethyl ester], the concentration for half-maximal inhibition (IC50) at human P2Y12 receptor is 43 nM; in assay [1], 690 nM.
For the compound `CCOC(=O)N1CCN(C(=O)[C@H](CCC(=O)OC2CCC2)NC(=O)c2cc(OCC(=O)N3CCC[C@H]3C(=O)NC3CCC3)n(-c3ccccc3)n2)CC1` [Example 131, 4-[(S)-2-({5-[2-((S)-2-Cyclobutylcarbamoyl-pyrrolidin-1-yl)-2-oxo-ethoxy]-1-phenyl-1H-pyrazole-3-carbonyl}-amino)-4-cyclobutoxycarbonyl-butyryl]-piperazine-1-carboxylic acid ethyl ester], the IC50 at human P2Y12 receptor turned out to be 54 nM; in assay [1], 740 nM.
On the same counts, the results for `CCOC(=O)N1CCN(C(=O)[C@H](CCC(=O)OCC(C)C)NC(=O)c2cc(OCC(=O)N3CCC[C@H]3C(=O)NC3CCC3)n(-c3ccccc3)n2)CC1` [Example 135, 4-[(S)-2-({5-[2-((S)-2-Cyclobutylcarbamoyl-pyrrolidin-1-yl)-2-oxo-ethoxy]-1-phenyl-1H-pyrazole-3-carbonyl}-amino)-4-isobutoxycarbonyl-butyryl]-piperazine-1-carboxylic acid ethyl ester] are 60 nM and 660 nM.
With `CCOC(=O)N1CCN(C(=O)[C@H](CCC(=O)OC)NC(=O)c2cc(OCC(=O)N3CCC[C@H]3C(=O)NC3CCC3)n(-c3ccccc3)n2)CC1` [Example 136, 4-[(S)-2-({5-[2-((S)-2-Cyclobutylcarbamoyl-pyrrolidin-1-yl)-2-oxo-ethoxy]-1-phenyl-1H-pyrazole-3-carbonyl}-amino)-4-methoxycarbonyl-butyryl]-piperazine-1-carboxylic acid ethyl ester], the IC50 came to 39 nM at human P2Y12 receptor and 260 nM in assay [1].
Consider `CCOC(=O)N1CCN(C(=O)[C@H](CCC(=O)OCC2CCCC2)NC(=O)c2cc(OCC(=O)N3CCC[C@H]3C(=O)NC3CCC3)n(-c3ccccc3)n2)CC1` [Example 138, 4-[(S)-2-({5-[2-((S)-2-Cyclobutylcarbamoyl-pyrrolidin-1-yl)-2-oxo-ethoxy]-1-phenyl-1H-pyrazole-3-carbonyl}-amino)-4-cyclopentylmethoxycarbonyl-butyryl]-piperazine-1-carboxylic acid ethyl ester], for which the figures for the IC50 (at human P2Y12 receptor; in assay [1]) were 83 nM and 1650 nM, respectively.
On the same counts, the results for `CCOC(=O)N1CCN(C(=O)[C@H](CCC(=O)OCOC(=O)C(C)(C)C)NC(=O)c2cc(OCC(=O)N3CCC[C@H]3C(=O)NC3CCC3)n(-c3ccccc3)n2)CC1` [Example 139, 4-[(S)-2-({5-[2-((S)-2-Cyclobutylcarbamoyl-pyrrolidin-1-yl)-2-oxo-ethoxy]-1-phenyl-1H-pyrazole-3-carbonyl}-amino)-4-(2,2-dimethyl-propionyloxymethoxycarbonyl)-butyryl]-piperazine-1-carboxylic acid ethyl ester] are 56 nM and 360 nM.
For `CCOC(=O)N1CCN(C(=O)[C@H](CCC(=O)O)NC(=O)c2cc(OCC(=O)N3CCC[C@H]3C(=O)NC3CCC3)n(-c3ccccc3)n2)[C@H](C)C1` [Example 150, (R)-4-[(S)-4-Carboxy-2-({5-[2-((S)-2-cyclobutylcarbamoyl-pyrrolidin-1-yl)-2-oxo-ethoxy]-1-phenyl-1H-pyrazole-3-carbonyl}-amino)-butyryl]-3-methyl-piperazine-1-carboxylic acid ethyl ester], in that order: 20 nM and 70 nM.
